In article PMC11173382, “In Vitro Investigations into the Potential Drug Interactions of Pseudoginsenoside DQ Mediated by Cytochrome P450 and Human Drug Transporters” (Molecules, 2024):

Biological target: T1, CYP2B6 (Homo sapiens, UniProt P20813)
T1 construct: tissue Corning 452117; host or cells: human liver microsomes
T1 sequence (P20813 1-491): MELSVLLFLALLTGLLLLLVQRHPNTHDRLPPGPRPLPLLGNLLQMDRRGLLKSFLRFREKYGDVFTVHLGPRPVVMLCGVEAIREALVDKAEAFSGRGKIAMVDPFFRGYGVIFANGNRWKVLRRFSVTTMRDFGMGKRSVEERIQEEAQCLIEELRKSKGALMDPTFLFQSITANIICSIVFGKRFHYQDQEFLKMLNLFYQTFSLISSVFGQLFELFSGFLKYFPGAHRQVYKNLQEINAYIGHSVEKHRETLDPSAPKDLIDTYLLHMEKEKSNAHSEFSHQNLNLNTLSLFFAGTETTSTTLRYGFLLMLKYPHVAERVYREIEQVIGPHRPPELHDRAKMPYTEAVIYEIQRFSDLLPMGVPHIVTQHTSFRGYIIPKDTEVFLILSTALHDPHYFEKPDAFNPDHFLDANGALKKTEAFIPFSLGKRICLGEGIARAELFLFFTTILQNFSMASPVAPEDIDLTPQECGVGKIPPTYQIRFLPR
Test: CYP450 inhibition assay in human liver microsomes, CYP2B6
Format: in vitro ADME
Conditions: HLM 0.1 mg/mL; probe bupropion 80 µM; 10 min
Procedure: To evaluate the reliability and reproducibility of the CYP450 inhibition assay, we measured the inhibitory effects of selected positive control inhibitors of each CYP450 enzyme in human liver microsomes (HLM, Table 1, Figure 2). The potency of inhibition was estimated by observing the alteration in concentration of metabolites of CYP450 substrates (Table 1).
Reagents preparation. […] The stock solution of PDQ (10 mM) was prepared with methanol and further diluted to the range of 3 µM to 3 mM with methanol to ensure that the solvent of different PDQ samples contained the same amount (1%) of methanol.
The stock solutions of the positive control inhibitors and the probe substrates of CYP450 enzymes were prepared in methanol.
CYP450 inhibition assay. […] The assay was conducted in polypropylene 96-well plates (2.2 mL/well, Apricot Designs Inc., Covina, CA, USA).
The total volume of the reaction is 200 μL. […] The substrates and analytes were analyzed by LC-MS/MS (API4000, Applied Biosystems, Singapore; HPLC, Shimadzu, Japan). […]
Data analysis. […] The IC50 was determined by fitting the dependence of the relative remaining activity (y = Vi/V0) to the following three-parameter equation (Equation (1)). […]

CC(C)(O)[C@@H]1CC[C@@](C)([C@H]2CC[C@]3(C)[C@@H]2[C@H](O)C[C@@H]2[C@@]4(C)CC[C@H](O)C(C)(C)[C@@H]4CC[C@]23C)O1 [PDQ, (20S,24S)-dammar-20,24-epoxy-3β, 12β, 25-triol]
IC50: 45.3 µM
